Reference: patent US12077503B2, “Substituted cyclic amides and their use as herbicides” (FMC CORPORATION, priority 2015, dated 2024)

How the values were obtained:
Format in all cases: in vivo
Kochia (Kochia scoparia) [1] = assay: Test A preemergence; settings: for Plant response rating, Kochia: 125 g ai/ha, preemergence, 0 to 100 scale (0 no effect, 100 complete control); for Kochia plant response rating (0 to 100 scale, 0 is no effect, 100 is complete control): Preemergence, 500 g ai/ha, visual injury approx. 10 d
Method in brief: (§1)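 Each rating is a visual injury score from 0 to 100 given about 10 d after treatment, judged against untreated controls kept alongside in the greenhouse. In loam soil–sand blend, seeds got a preemergence directed soil spray, while postemergence plants were 2 to 10 cm tall at spraying.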

[2] = tested on: barnyardgrass (Echinochloa crus-galli); assay: Test A preemergence; settings: for Plant response rating, Barnyardgrass: 125 g ai/ha, preemergence, 0 to 100 scale (0 no effect, 100 complete control); for Barnyardgrass plant response rating (0 to 100 scale, 0 is no effect, 100 is complete control): Preemergence, 500 g ai/ha, visual injury approx. 10 d
Method in brief: as §1

[3] = tested on: giant foxtail (Setaria faberii); assay: Test A preemergence; settings: for Plant response rating, Foxtail, Giant: 125 g ai/ha, preemergence, 0 to 100 scale (0 no effect, 100 complete control); for Foxtail, Giant plant response rating (0 to 100 scale, 0 is no effect, 100 is complete control): Preemergence, 500 g ai/ha, visual injury approx. 10 d
Method in brief: as §1

[4] = tested on: pigweed (Amaranthus retroflexus); assay: Test A preemergence; settings: for Plant response rating, Pigweed: 125 g ai/ha, preemergence, 0 to 100 scale (0 no effect, 100 complete control); for Pigweed plant response rating (0 to 100 scale, 0 is no effect, 100 is complete control): Preemergence, 500 g ai/ha, visual injury approx. 10 d
[5] = tested on: ragweed (common ragweed, Ambrosia elatior); assay: Test A preemergence; settings: for Plant response rating, Ragweed: 125 g ai/ha, preemergence, 0 to 100 scale (0 no effect, 100 complete control); for Ragweed plant response rating (0 to 100 scale, 0 is no effect, 100 is complete control): Preemergence, 500 g ai/ha, visual injury approx. 10 d
Method in brief: as §1

[6] = tested on: ryegrass, Italian (Italian ryegrass, Lolium multiflorum); assay: Test A preemergence; settings: for Plant response rating, Ryegrass, Italian: 125 g ai/ha, preemergence, 0 to 100 scale (0 no effect, 100 complete control); for Ryegrass, Italian plant response rating (0 to 100 scale, 0 is no effect, 100 is complete control): Preemergence, 500 g ai/ha, visual injury approx. 10 d
Method in brief: as §1

[7] = tested on: Galium (catchweed bedstraw, Galium aparine); assay: Test A postemergence; settings: postemergence; for Galium plant response rating: 125 g ai/ha, visual injury rating on 0 to 100 scale (0 no effect, 100 complete control), approx. 10 d; for Plant response rating, Galium: 500 g ai/ha, 0 to 100 scale, 0 no effect, 100 complete control
Method in brief: as §1

Kochia (Kochia scoparia) [8] = assay: Test A postemergence; settings: postemergence; for Kochia plant response rating: 125 g ai/ha, visual injury rating on 0 to 100 scale (0 no effect, 100 complete control), approx. 10 d; for Plant response rating, Kochia: 500 g ai/ha, 0 to 100 scale, 0 no effect, 100 complete control
Method in brief: as §1

[9] = tested on: barnyardgrass (Echinochloa crus-galli); assay: Test A postemergence; settings: postemergence; for Barnyardgrass plant response rating: 125 g ai/ha, visual injury rating on 0 to 100 scale (0 no effect, 100 complete control), approx. 10 d; for Plant response rating, Barnyardgrass: 500 g ai/ha, 0 to 100 scale, 0 no effect, 100 complete control
Method in brief: as §1

[10] = tested on: blackgrass (Alopecurus myosuroides); assay: Test A postemergence; settings: postemergence; for Blackgrass plant response rating: 125 g ai/ha, visual injury rating on 0 to 100 scale (0 no effect, 100 complete control), approx. 10 d; for Plant response rating, Blackgrass: 500 g ai/ha, 0 to 100 scale, 0 no effect, 100 complete control
Method in brief: as §1

corn (Zea mays) = assay: Test A postemergence; settings: postemergence; for Corn plant response rating: 125 g ai/ha, visual injury rating on 0 to 100 scale (0 no effect, 100 complete control), approx. 10 d; for Plant response rating, Corn: 500 g ai/ha, 0 to 100 scale, 0 no effect, 100 complete control
Method in brief: as §1

[11] = tested on: giant foxtail (Setaria faberii); assay: Test A postemergence; settings: postemergence; for Foxtail, Giant plant response rating: 125 g ai/ha, visual injury rating on 0 to 100 scale (0 no effect, 100 complete control), approx. 10 d; for Plant response rating, Foxtail, Giant: 500 g ai/ha, 0 to 100 scale, 0 no effect, 100 complete control
Method in brief: as §1

[12] = tested on: pigweed (Amaranthus retroflexus); assay: Test A postemergence; settings: postemergence; for Pigweed plant response rating: 125 g ai/ha, visual injury rating on 0 to 100 scale (0 no effect, 100 complete control), approx. 10 d; for Plant response rating, Pigweed: 500 g ai/ha, 0 to 100 scale, 0 no effect, 100 complete control
Method in brief: as §1

[13] = tested on: ragweed (common ragweed, Ambrosia elatior); assay: Test A postemergence; settings: postemergence; for Ragweed plant response rating: 125 g ai/ha, visual injury rating on 0 to 100 scale (0 no effect, 100 complete control), approx. 10 d; for Plant response rating, Ragweed: 500 g ai/ha, 0 to 100 scale, 0 no effect, 100 complete control
Method in brief: as §1

[14] = tested on: ryegrass, Italian (Italian ryegrass, Lolium multiflorum); assay: Test A postemergence; settings: postemergence; for Ryegrass, Italian plant response rating: 125 g ai/ha, visual injury rating on 0 to 100 scale (0 no effect, 100 complete control), approx. 10 d; for Plant response rating, Ryegrass, Italian: 500 g ai/ha, 0 to 100 scale, 0 no effect, 100 complete control
Method in brief: as §1

[15] = tested on: wheat (Triticum aestivum); assay: Test A postemergence; settings: postemergence; for Wheat plant response rating: 125 g ai/ha, visual injury rating on 0 to 100 scale (0 no effect, 100 complete control), approx. 10 d; for Plant response rating, Wheat: 500 g ai/ha, 0 to 100 scale, 0 no effect, 100 complete control
Method in brief: as §1

[16] = tested on: barnyardgrass (Echinochloa crus-galli); assay: Test B flooded paddy test; settings: Flood, 500 g ai/ha; 0 to 100 scale where 0 is no effect and 100 is complete control; 13 to 15 d
Method in brief: (§2)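 Rating scale 0–100 (visual, vs untreated controls) after a 13–15 d greenhouse period; application to the flood layer, 3 cm above soil and maintained; plants at 2-leaf stage when treated.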

[17] = tested on: ducksalad (Heteranthera limosa); assay: Test B flooded paddy test; settings: Flood, 500 g ai/ha; 0 to 100 scale where 0 is no effect and 100 is complete control; 13 to 15 d
Method in brief: as §2

rice (Oryra sativa) = assay: Test B flooded paddy test; settings: Flood, 500 g ai/ha; 0 to 100 scale where 0 is no effect and 100 is complete control; 13 to 15 d
Method in brief: as §2

[18] = tested on: sedge, umbrella (small-flower umbrella sedge, Cyperus difformis); assay: Test B flooded paddy test; settings: Flood, 500 g ai/ha; 0 to 100 scale where 0 is no effect and 100 is complete control; 13 to 15 d
Method in brief: as §2

Row | SMILES | Plant response rating, Kochia (Kochia (Kochia scoparia) [1]) | Kochia plant response rating (0 to 100 scale, 0 is no effect, 100 is complete control) (Kochia (Kochia scoparia) [1]) | Plant response rating, Barnyardgrass [2] | Barnyardgrass plant response rating (0 to 100 scale, 0 is no effect, 100 is complete control) [2] | Plant response rating, Foxtail, Giant [3] | Foxtail, Giant plant response rating (0 to 100 scale, 0 is no effect, 100 is complete control) [3] | Plant response rating, Pigweed [4] | Pigweed plant response rating (0 to 100 scale, 0 is no effect, 100 is complete control) [4] | Plant response rating, Ragweed [5] | Ragweed plant response rating (0 to 100 scale, 0 is no effect, 100 is complete control) [5] | Plant response rating, Ryegrass, Italian [6] | Ryegrass, Italian plant response rating (0 to 100 scale, 0 is no effect, 100 is complete control) [6] | Galium plant response rating [7] | Plant response rating, Galium [7] | Kochia plant response rating (Kochia (Kochia scoparia) [8]) | Plant response rating, Kochia (Kochia (Kochia scoparia) [8]) | Barnyardgrass plant response rating [9] | Plant response rating, Barnyardgrass [9] | Blackgrass plant response rating [10] | Plant response rating, Blackgrass [10] | further results
1 | O=C1NCC(c2cccc(OCC(F)F)c2)C1C(=O)Nc1ccc(F)c(F)c1F (stereo not drawn) [Compound 407] | 0 | 0 | 70 | 80 | 80 | 90 | 0 | 20 | 0 | 0 | 0 | 0 | 0 | 0 | 0 | 40 | 60 | 70 | 30 | 50 | Corn plant response rating (corn (Zea mays)): 0; Plant response rating, Corn (corn (Zea mays)): 40; Foxtail, Giant plant response rating [11]: 70; Plant response rating, Foxtail, Giant [11]: 70; Pigweed plant response rating [12]: 0; Plant response rating, Pigweed [12]: 0; Ragweed plant response rating [13]: 0; Plant response rating, Ragweed [13]: 0; Ryegrass, Italian plant response rating [14]: 0; Plant response rating, Ryegrass, Italian [14]: 0; Wheat plant response rating [15]: 0; Plant response rating, Wheat [15]: 0; Plant response rating, Barnyardgrass [16]: 60; Plant response rating, Ducksalad [17]: 100; Plant response rating, Rice (rice (Oryra sativa)): 10; Plant response rating, Sedge, Umbrella [18]: 0
2 | O=C1NCC(c2ccc(F)c(F)c2)C1C(=O)Nc1ccc(F)cc1Cl (stereo not drawn) [Compound 411] | 0 | 0 | 70 | 80 | 80 | 90 | 0 | 10 | 0 | 0 | 0 | 0 | 30 | 50 | 0 | 0 | 40 | 70 | 0 | 0 | Corn plant response rating (corn (Zea mays)): 0; Plant response rating, Corn (corn (Zea mays)): 0; Foxtail, Giant plant response rating [11]: 40; Plant response rating, Foxtail, Giant [11]: 80; Pigweed plant response rating [12]: 0; Plant response rating, Pigweed [12]: 0; Ragweed plant response rating [13]: 0; Plant response rating, Ragweed [13]: 0; Ryegrass, Italian plant response rating [14]: 0; Plant response rating, Ryegrass, Italian [14]: 0; Wheat plant response rating [15]: 0; Plant response rating, Wheat [15]: 0; Plant response rating, Barnyardgrass [16]: 20; Plant response rating, Ducksalad [17]: 98; Plant response rating, Rice (rice (Oryra sativa)): 0; Plant response rating, Sedge, Umbrella [18]: 0
